ChEMBL document CHEMBL1629628, “Methicillin-resistant and -susceptible Staphylococcus aureus strains of clonal lineages ST398 and ST9 from swine carry the multidrug resistance gene cfr” (2009)
Converted amounts (≈) assume the structure as drawn.

Tests used:
Format in all cases: functional
Staphylococcus aureus [1] = test: Antimicrobial activity against Staphylococcus aureus RN4220 transformed with Staphylococcus aureus ST9 plasmid pSCFS3 carrying cfr and fexA genes
Staphylococcus aureus [2] = test: Antimicrobial activity against methicillin-resistant Staphylococcus aureus ST398 expressing cfr, fexA, erm(A), tet(M) and mecA genes
Staphylococcus aureus [3] = test: Antimicrobial activity against Staphylococcus aureus RN4220
Staphylococcus aureus [4] = test: Antimicrobial activity against methicillin-susceptible Staphylococcus aureus ST9 expressing cfr, fexA and erm(C) genes
Staphylococcus aureus [5] = test: Antimicrobial activity against Staphylococcus aureus RN4220 transformed with Staphylococcus aureus ST398 plasmid pSCFS3 carrying cfr and fexA genes

| SMILES | MIC (Staphylococcus aureus [1]) | MIC (Staphylococcus aureus [2]) | MIC (Staphylococcus aureus [3]) | MIC (Staphylococcus aureus [4]) | MIC (Staphylococcus aureus [5]) |
| --- | --- | --- | --- | --- | --- |
| O=C(N[C@H](CO)[C@H](O)c1ccc([N+](=O)[O-])cc1)C(Cl)Cl [CHLORAMPHENICOL] | ≥ 128 µg/mL | ≥ 128 µg/mL | 4 µg/mL (≈ 12.4 µM) | ≥ 128 µg/mL | ≥ 128 µg/mL |
| CCC[C@@H]1C[C@@H](C(=O)N[C@@H]([C@H]2O[C@H](SC)[C@H](O)[C@@H](O)[C@H]2O)[C@H](C)Cl)N(C)C1 [CLINDAMYCIN] | ≥ 64 µg/mL | ≥ 64 µg/mL | 0.125 µg/mL (≈ 0.294 µM) | ≥ 64 µg/mL | ≥ 64 µg/mL |
| CC[C@H]1OC(=O)[C@H](C)[C@@H](O[C@H]2C[C@@](C)(OC)[C@@H](O)[C@H](C)O2)[C@H](C)[C@@H](O[C@@H]2O[C@H](C)C[C@H](N(C)C)[C@H]2O)[C@](C)(O)C[C@@H](C)C(=O)[C@H](C)[C@@H](O)[C@]1(C)O [ERYTHROMYCIN] | 0.25 µg/mL (≈ 0.341 µM) | ≥ 64 µg/mL | 0.25 µg/mL (≈ 0.341 µM) | ≥ 64 µg/mL | 0.25 µg/mL (≈ 0.341 µM) |
| CS(=O)(=O)c1ccc([C@@H](O)[C@@H](CF)NC(=O)C(Cl)Cl)cc1 [FLORFENICOL] | 128 µg/mL (≈ 357 µM) | ≥ 128 µg/mL | 2 µg/mL (≈ 5.58 µM) | ≥ 128 µg/mL | 128 µg/mL (≈ 357 µM) |
| CC(=O)NC[C@H]1CN(c2ccc(N3CCOCC3)c(F)c2)C(=O)O1 [LINEZOLID] |  |  | 0.5 µg/mL (≈ 1.48 µM) | 8 µg/mL (≈ 23.7 µM) |  |
| Cc1onc(-c2ccccc2)c1C(=O)N[C@@H]1C(=O)N2[C@@H]1SC(C)(C)[C@@H]2C(=O)O [OXACILLIN] | 0.06 µg/mL (≈ 0.149 µM) | ≥ 32 µg/mL | 0.06 µg/mL (≈ 0.149 µM) | 0.06 µg/mL (≈ 0.149 µM) | 0.06 µg/mL (≈ 0.149 µM) |
| CN(C)[C@@H]1C(O)=C(C(N)=O)C(=O)[C@@]2(O)C(O)=C3C(=O)c4c(O)cccc4[C@@](C)(O)[C@H]3C[C@@H]12 [TETRACYCLINE] | 0.25 µg/mL (≈ 0.563 µM) | 64 µg/mL (≈ 144 µM) | 0.25 µg/mL (≈ 0.563 µM) | 0.12 µg/mL (≈ 0.27 µM) | 0.25 µg/mL (≈ 0.563 µM) |
| C=C[C@]1(C)C[C@@H](OC(=O)CSCCN(CC)CC)[C@]2(C)[C@H](C)CC[C@]3(CCC(=O)[C@H]32)[C@@H](C)[C@@H]1O [TIAMULIN] | ≥ 128 µg/mL | ≥ 128 µg/mL | 0.063 µg/mL (≈ 0.128 µM) | ≥ 128 µg/mL | ≥ 128 µg/mL |
| CC1=C\[C@@H](O)CC(=O)Cc2nc(co2)C(=O)N2CCC=C2C(=O)O[C@H](C(C)C)[C@H](C)/C=C/C(=O)NC\C=C\1 [VIRGINIAMYCIN FACTOR M1] | 128 µg/mL (≈ 244 µM) | 128 µg/mL (≈ 244 µM) | 4 µg/mL (≈ 7.61 µM) | 128 µg/mL (≈ 244 µM) | 128 µg/mL (≈ 244 µM) |
